Data on one compound can be found in patent US12685733B2, “Indole molecules and use thereof in the inhibition of DNA polymerases” (BioVentures, LLC, priority 2019, dated 2026).

In test [1] the test system is hpol κ-proficient HAP-1 cells. Put plainly: Clonogenic survival assay. The format is cell-based, human. The protocol:
HAP-1 and hpol κ^KO cells were purchased from Horizons Discovery Group LLC (Cambridge, UK). The company generated the Hap1 cells using CRISPR-Cas9 technology and the elimination of kappa expression was confirmed by Sanger sequence genome editing. We further confirmed the elimination of hpol κ protein expression by Western blotting (data not shown). Hap1 cells were cultured in Iscove's modified Dulbecco's medium (IMDM; Invitrogen, CA, USA) supplemented with 10% (v/v) fetal bovine serum (FBS; Atlas Biologicals, CO, USA) and 1% (v/v) antibiotic/antimycotic solution (Sigma-Aldrich, MO, USA).T98G cells were purchased from ATCC (American Type Culture Collection, VA, USA). T98G cells were cultured in MEM (Minimum Essential Medium) (Invitrogen, CA, USA) supplemented with 10% (v/v) FBS (Fetal Bovine Serum, Atlas Biologicals, CO, USA) and antibiotic/antimycotic solution (1%, v/v) (Sigma-Aldrich, MO, USA). NT2 cells were kindly provided by Dr. Michael Borrelli (University of Arkansas for Medical Sciences, AR, USA). NT2 cells were cultured in DMEM/F12 (Dulbecco's Modified Eagle Medium) supplemented with 10% (v/v) FCS (Fetal Calf Serum) and antibiotic/antimycotic solution (1%) (Sigma-Aldrich, MO, USA).
To measure the clonogenic ability, cells were plated (500 cells per well) in 6-well dishes. In the case of HAP-1 cells, cells were treated the following day after plating, with temozolomide (TMZ) (0, 1, 5, 50, 125 and 250 μM) alone or in combination with UAMS-48 (0.1 and 0.5 μM) for 1 hour. In the case of T98G and NT2 cells, treatment was done on the following day of plating, with increasing concentrations of TMZ alone or in combination with UAMS-48 (50 nM) for 3 hrs. T98G and NT2 cells were treated with increasing concentrations of UAMS-48 for 3 hrs. After treatment, cells were cultured in fresh IMDM supplemented with 10% FBS for 10 days. The colonies were gently washed with 1×PBS, fixed with 3.7% (v/v) formaldehyde for 20 mins at RT and stained with crystal violet solution (Sigma-Aldrich, MO, USA) for 30 mins at RT.
The fixed crystal-violet stained colonies in each 6-well plate were examined under an EVOS XL Core imaging system (Thermo Fisher Scientific) under bright-field, and the colonies were inspected manually. […] Color images of each 6-well plate were captured and opened for processing using the Fiji version of the freely available software ImageJ. Setting the appropriate threshold for counting colonies for each cell type, corresponding to the respective radii calculated previously, the colonies were counted using the Colony Area plugin of ImageJ. Manual counting was performed on a few wells picked randomly, and the colony count so obtained was tallied with the number obtained using ImageJ, to ensure they matched reasonably. All experiments were performed in triplicate, and the colony number for each well was expressed as the mean (±standard deviation). The results were plotted to generate a dose response curve for TMZ treatment using the software Graphpad Prism, where the mean number of colonies was plotted along the Y-axis, and the TMZ concentration along the X-axis. Bar charts comparing the mean number of colonies as a function of the various conditions were also plotted for both cell types. Combination index values were calculated using the Chou-Talalay method (Chou 2010).

Test [2] concerns the target T1, hpol κ (Homo sapiens, UniProt Q9UBT6).
T1 sequence (Q9UBT6 19-526): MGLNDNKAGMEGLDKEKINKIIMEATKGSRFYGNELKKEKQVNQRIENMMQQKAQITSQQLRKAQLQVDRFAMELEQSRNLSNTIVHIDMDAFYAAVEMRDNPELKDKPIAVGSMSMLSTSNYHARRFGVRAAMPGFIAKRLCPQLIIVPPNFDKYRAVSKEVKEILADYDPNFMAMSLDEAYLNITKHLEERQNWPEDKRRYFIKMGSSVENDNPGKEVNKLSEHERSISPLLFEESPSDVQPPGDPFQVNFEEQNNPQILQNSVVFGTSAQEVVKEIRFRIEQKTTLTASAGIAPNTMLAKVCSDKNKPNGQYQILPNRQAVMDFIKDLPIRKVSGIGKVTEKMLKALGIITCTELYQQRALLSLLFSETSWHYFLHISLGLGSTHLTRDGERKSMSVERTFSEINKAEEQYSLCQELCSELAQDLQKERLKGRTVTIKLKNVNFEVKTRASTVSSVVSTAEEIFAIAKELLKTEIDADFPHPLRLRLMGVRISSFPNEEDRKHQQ
Put plainly: HPG labeling (chemical footprinting) with LC-MS. On the set-up: hpol κ (residues 19-526); made in house. To be noted: IAG-10 20 and 100 μM added. As for the experimental part:
HPG is a commonly used amino-acid modifier, which when reacted with a protein, modifies the L-arginine side chains selectively. HPG labeling experiments were performed with hpol κ (10 μM) in the presence or absence of UAMS-48. Briefly, hpol κ was pre-incubated with either 20 μM (1:2 molar ratio) or 100 μM (1:10 molar ratio) IAG-10 for 10 mins at 37° C. in 50 mM HEPES buffer (pH 7.8) containing 200 mM NaCl, 10 mM MgCl2, and 10% v/v DMSO. The HPG labeling was carried out at 37° C. in the dark for 1 hr by adding 500 μM of HPG to the pre-incubated reaction mix, followed by addition of 200 mM of free L-arginine to quench the reaction after 1 hr. […]
The peak intensity was then quantified manually using the corresponding m/z value and the relative abundance for each modified peptide was calculated as a function of area under the peak in Xcalibur™ software (ThermoFisher Scientific). The percentage of modified arginine measured by mass spectrometry was calculated as a fraction of total arginine (i.e. unmodified+HPG modified) quantified for a specific residue. […]
Next, Chemical footprinting was used in an effort to ascertain the binding site of IAG-10 on hpol κ. […] After quenching the reaction and gel electrophoresis, the modified protein was trypsin-digested, and the resulting peptides were analyzed by LC-MS. […]

Take `Cl.[H]/N=C(\N)NN=Cc1cn(C(=O)c2cccc3ccccc23)c2ccc(Cl)cc12` [IAG-10, (E)-2-((1-(1-naphthoyl)-5-chloro-1H-indol-3-y1)methylene)hydrazine-1-carboximidamide hydrochloride]: the “colony formation, compound alone” value in test [1] (0.5 μM IAG-10) is on record as “does not impair colony formation”. In test [1] (250 μM TMZ + 0.5 μM IAG-10 co-treatment, 1 hour), the “colonies formed relative to untreated cells” value is ~ 40%. In test [2], the “decrease in the fraction of HPG-modified peptides (Arg145, Arg149, Arg505)” value was greater than 50% and the “fraction of HPG-modified peptides containing Arg48” value was “large increase”.
